The values below come from US6103767A, “Physiologically active substances TKR1785's, process for the preparation thereof, and microbe” (Takara Shuzo Co., Ltd., priority 1996, dated 2000).

Data set [1] relates to ICR mice. Briefly: Toxicity in mice, intraperitoneal. The note with it: intraperitoneally, 50 mg/kg. Type of data set: in vivo.
Data set [2] has as its system Candida kefir TIMM0301. The data set is described as follows: Antifungal activity, liquid medium dilution method. The data set is classed as cell-based. The note with it: Candida kefir TIMM0301, YNBG medium; for MIC: read-out: Minimal inhibitory concentration. As to the method: (§1) The antifungal activity of the above substance TKR1785 against various microorganisms was investigated. Using the liquid medium dilution method, the concentration which caused substantially complete Inhibition of growth was determined as minimal inhibitory concentration (μg/ml). The concentration causing a partial inhibition of growth was also determined as 50% inhibitory concentration (μg/ml) and is shown in parentheses of table 2. In the table, YNBG represents a medium containing 0.67% of yeast nitrogen base (Difco) and 1% of glucose. BHI represents a medium containing 0.5% of brain heart infusion bouillon (Nissui Pharmaceutical). YNBG-Tween represents a medium containing 0.67% of yeast nitrogen base, 0.5% bactocasitone, 2% of glucose, and 1% of Tween 40.

Data set [3] has as its system Cryptococcus neoformans TIMM0354. The data set is described as follows: Antifungal activity, liquid medium dilution method. Type of data set: cell-based. Particulars: Cryptococcus neoformans TIMM0354, YNBG medium; for IC50: read-out: 50% inhibitory concentration (in parentheses); for MIC: read-out: Minimal inhibitory concentration. As to the method: as §1
Data set [4] deals with Candida albicans TIMM0136. The data set is described as follows: Antifungal activity, liquid medium dilution method. Particulars: Candida albicans TIMM0136, YNBG medium; for IC50: partial inhibition of growth, read-out: 50% inhibitory concentration (in parentheses); for MIC: substantially complete inhibition of growth, read-out: Minimal inhibitory concentration. The data set is classed as cell-based. How it is done:
as §1

Data set [5] deals with Aspargillus fumigatus TIMM1776. The data set is described as follows: Antifungal activity, liquid medium dilution method. Type of data set: cell-based. Particulars: Aspargillus fumigatus TIMM1776, BHI medium; for IC50: read-out: 50% inhibitory concentration (in parentheses); for MIC: read-out: Minimal inhibitory concentration. As to the method: as §1
Data set [6] concerns phospholipase A2 (derived from porcine pancreas). The data set is described as follows: Phospholipase A2 inhibitory activity ([14C]palmitic acid release from [14C]phosphatidylcholine). Type of data set: biochemical. As to the method: (§2) The inhibitory activity of TKR1785-I against phospholipase A2 (derived from porcine pancreas) and leukotriene (LT) C4 synthase (derived from the guinea-pig lung), which are enzymes related to the immune system, was determined. Phospholipase A2 activity was assayed for a hexane extract under acidic conditions by determining the [^14 C]palmitic acid released from [^14 C]phosphatidylcholine. LTC4 synthase activity was assayed by determining the yield of LTC4 from LTA4 by the RIA method.

For data set [7], the system named is Mixed lymphocyte reaction (C57BL/6 responder cells, BALB/c stimulator cells). The data set is described as follows: Mixed lymphocyte reaction (MLR) inhibitory activity, 3H-thymidine uptake. The data set is classed as cell-based, mice. The note with it: mouse spleen cells, 3H-thymidine uptake vs sample-free group, read-out: 50% inhibitory concentration, MLR-inhibitory activity. As to the method:
From C57BL/6 and BALB/c mice, the spleen was isolated and homogenized in a medium to provide a cell suspension. The cell suspension derived from C57BL/6 mice was passed through a nylon wool column to prepare a T cell-rich fraction (responder cells). The BALB/c-derived cell suspension was irradiated with X-rays to prepare stimulator cells. The responder cells and stimulator cells were mixed in a ratio of 1:1 and incubated in a CO2 incubator for 4 days. Following addition of 3H-thymidine, the cells were further culturen overnight. The cells were then recovered and the amount of ^3 H-thymidine uptake was determined. The samples (500, 125, 31.2, and 7.8 μg/ml solutions of dimethyl sulfoxide diluted with the medium) were respectively added in a proportion of 0.5% at mixing the responder cells with the stimulator cells to final concentrations of 25 to 0.039 μg/ml. The inhibitory activity was determined by comparison with the 3H-thymidine uptake in the sample-free group.

The test system of data set [8] is Malassezia furfur TIMM2782. Briefly: Antifungal activity, liquid medium dilution method. The data set is classed as cell-based. Particulars: Malassezia furfur TIMM2782, YNBG-Tween medium; read-out: 50% inhibitory concentration (in parentheses). How it is done:
as §1

Data set [9] has as its system leukotriene (LT) C4 synthase (derived from the guinea-pig lung). Briefly: LTC4 synthase inhibitory activity (yield of LTC4 from LTA4 by RIA). Type of data set: biochemical. How it is done: as §2
Data set [10] is described as follows: Solubility in various solvents. Type of data set: physicochemical.

In brackets after ≈: the same amount, converted by molar mass.

With `CCCCCCCCCCCCCC(O)CC(O)C(N)CC(=O)N[C@H](C(=O)NC(CO)CO)[C@@H](C)CC` (single isomer, unassigned) [TKR1785-II], in data set [1], the Toxic response result is “no toxic response was found”. The IC50 in data set [2] (read-out: 50% inhibitory concentration (in parentheses)) amounted to 6.25 µg/mL (≈ 11.8 µM); in data set [3] it was 6.25 µg/mL (≈ 11.8 µM); in [4], 6.25 µg/mL (≈ 11.8 µM); in data set [5] it was 25 µg/mL (≈ 47 µM). For the same compound, the MIC came out at 12.5 µg/mL (≈ 23.5 µM) in [2], 12.5 µg/mL (≈ 23.5 µM) in data set [3], 12.5 µg/mL (≈ 23.5 µM) in [4] and 50 µg/mL (≈ 94 µM) in data set [5].
On to `CCCCCCCCCCCCCC(O)CC(O)C(N)CC(=O)N[C@H](C(=O)NC(CO)CO)C(C)C` (single isomer, unassigned) [TKR1785-I], for which the “Inhibition (%)” value stood at 33% in data set [6] (Phospholipase A2, test concentration 10 μg/ml); 92% in [6] (Phospholipase A2, test concentration 100 μg/ml); 21% in [9] (test concentration 30 μg/ml); 98% in [9] (test concentration 300 μg/ml). In addition, the Toxic response entry in data set [1] is recorded as “no toxic response was found”. The IC50 in [7] came to 0.41 µg/mL (≈ 0.792 µM); in [8], 12.5 µg/mL (≈ 24.1 µM); in data set [3], 3.13 µg/mL (≈ 6.05 µM); in data set [4] it was 6.25 µg/mL (≈ 12.1 µM); in data set [5] it was 3.13 µg/mL (≈ 6.05 µM). Moreover, the MIC in [2] was 6.25 µg/mL (≈ 12.1 µM); in data set [3] it was 6.25 µg/mL (≈ 12.1 µM); in data set [4], 12.5 µg/mL (≈ 24.1 µM); in [5] it was 25 µg/mL (≈ 48.3 µM). In addition, the “Solubility in chloroform and hexane” value in [10] (chloroform, hexane) is “only sparingly soluble in chloroform and hexane”. Also, in data set [10] (methanol, water), the “Solubility in methanol and water” value is “soluble in methanol and water”.
